Assay [1] concerns the target T1, NLRP3 (Homo sapiens, UniProt Q96P20). Briefly: THP-1 cells pyroptosis assay (LPS + nigericin, resazurin readout). It is filed as cell-based. Set-up: Seed THP-1 cells (25,000 cells/well) containing 1.0 μg/ml LPS in 40 μl of RPMI medium; host or cells: THP-1 cells. The following applies: NLRP3 inhibitory activity, 1.0 μg/ml LPS, 5 μM nigericin. The procedure: THP-1 cells (ATCC #TIB-202) were grown in RPMI containing L-glutamine (Gibco #11835) supplemented with 1 mM sodium pyruvate (Sigma #S8636) and penicillin (100 units/ml)/streptomycin (0.1 mg/ml) (Sigma #P4333) in 10% Fetal Bovine Serum (FBS) (Sigma #F0804). The cells were routinely passaged and grown to confluency (˜10^6 cells/ml). On the day of the experiment, THP-1 cells were harvested and resuspended into RPMI medium (without FBS). The cells were then counted and viability (>90%) checked by Trypan blue (Sigma #T8154). Appropriate dilutions were made to give a concentration of 625,000 cells/ml. To this diluted cell solution was added LPS (Sigma #L4524) to give a […] Final Assay Concentration (FAC). 40 μl of the final preparation was aliquoted into each well of a 96-well plate. The plate thus prepared was used for compound screening.
The following method step-by-step assay was followed for compound screening. • 1. Seed THP-1 cells (25,000 cells/well) containing 1.0 μg/ml LPS in 40 μl of RPMI medium (without FBS) in 96-well, black walled, clear bottom cell culture plates coated with poly-D-lysine (VWR #734-0317) • 2. Add 5 μl compound (8 points half-log dilution, with 10 μM top dose) or vehicle (DMSO 0.1% FAC) to the appropriate wells • 3. Incubate for 3 hrs at 37° C. in 5% CO2 • 4. Add 5 μl nigericin (Sigma #N7143) (FAC 5 μM) to all wells • 5. Incubate for 1 hr at 37° C. and 5% CO2 • 6. At the end of the incubation period, spin plates at 300×g for 3 mins and remove supernatant • 7. Then add 50 μl of resazurin (Sigma #R7017) (FAC 100 μM resazurin in RPMI medium without FBS) and incubate plates for a further 1-2 hrs at 37° C. and 5% CO2 • 8. Plates were read in an Envision reader at Ex 560 nm and Em 590 nm • 9. IC50 data is fitted to a non-linear regression equation (log inhibitor vs response-variable slope 4-parameters)

In assay [2] the target is T1, NLRP3. Briefly: Human whole blood IL1β release assay (LPS + nigericin, AlphaLisa IL-1β). It is filed as cell-based. Set-up: Human whole blood in Li-heparin tubes was obtained from healthy donors from a volunteer donor panel; from tissue; host or cells: human whole blood from healthy donors. The following applies: NLRP3 inhibitory activity, 1 μg/ml LPS, 10 μM nigericin, IL-1β release, read-out: HWB IC50. The procedure: For systemic delivery, the ability to inhibit NLRP3 when the compounds are present within the bloodstream is of great importance. For this reason, the NLRP3 inhibitory activity of a number of compounds in human whole blood was investigated in accordance with the following protocol.
Human whole blood in Li-heparin tubes was obtained from healthy donors from a volunteer donor panel. • 1. Plate out 80 μl of whole blood containing 1 μg/ml of LPS in 96-well, clear bottom cell culture plate (Corning #3585) • 2. Add 10 μl compound (8 points half-log dilution with 10 μM top dose) or vehicle (DMSO 0.1% FAC) to the appropriate wells • 3. Incubate for 3 hrs at 37° C., 5% CO2 • 4. Add 10 μl Nigericin (Sigma #N7143) (10 μM FAC) to all wells • 5. Incubate for 1 hr at 37° C., 5% CO2 • 6. At the end of the incubation period, spin plates at 300×g for 5 mins to pellet cells and remove 20 μl of supernatant and add to 96-well v-bottom plates for IL-1β analysis (note: these plates containing the supernatants can be stored at −80° C. to be analysed at a later date) • 7. IL-1β was measured according to the manufacturer protocol (Perkin Elmer-AlphaLisa IL-1β Kit AL220F-5000) • 8. IC50 data is fitted to a non-linear regression equation (log inhibitor vs response-variable slope 4-parameters)
(In general: In Alpha technology, singlet oxygen from a donor bead excites a nearby acceptor bead.)

Structures are written as SMILES. pIC50: −log10 of the molar value. Where only a bound is given, the exact number is not on record here.

T1 sequence (Q96P20 whole entry): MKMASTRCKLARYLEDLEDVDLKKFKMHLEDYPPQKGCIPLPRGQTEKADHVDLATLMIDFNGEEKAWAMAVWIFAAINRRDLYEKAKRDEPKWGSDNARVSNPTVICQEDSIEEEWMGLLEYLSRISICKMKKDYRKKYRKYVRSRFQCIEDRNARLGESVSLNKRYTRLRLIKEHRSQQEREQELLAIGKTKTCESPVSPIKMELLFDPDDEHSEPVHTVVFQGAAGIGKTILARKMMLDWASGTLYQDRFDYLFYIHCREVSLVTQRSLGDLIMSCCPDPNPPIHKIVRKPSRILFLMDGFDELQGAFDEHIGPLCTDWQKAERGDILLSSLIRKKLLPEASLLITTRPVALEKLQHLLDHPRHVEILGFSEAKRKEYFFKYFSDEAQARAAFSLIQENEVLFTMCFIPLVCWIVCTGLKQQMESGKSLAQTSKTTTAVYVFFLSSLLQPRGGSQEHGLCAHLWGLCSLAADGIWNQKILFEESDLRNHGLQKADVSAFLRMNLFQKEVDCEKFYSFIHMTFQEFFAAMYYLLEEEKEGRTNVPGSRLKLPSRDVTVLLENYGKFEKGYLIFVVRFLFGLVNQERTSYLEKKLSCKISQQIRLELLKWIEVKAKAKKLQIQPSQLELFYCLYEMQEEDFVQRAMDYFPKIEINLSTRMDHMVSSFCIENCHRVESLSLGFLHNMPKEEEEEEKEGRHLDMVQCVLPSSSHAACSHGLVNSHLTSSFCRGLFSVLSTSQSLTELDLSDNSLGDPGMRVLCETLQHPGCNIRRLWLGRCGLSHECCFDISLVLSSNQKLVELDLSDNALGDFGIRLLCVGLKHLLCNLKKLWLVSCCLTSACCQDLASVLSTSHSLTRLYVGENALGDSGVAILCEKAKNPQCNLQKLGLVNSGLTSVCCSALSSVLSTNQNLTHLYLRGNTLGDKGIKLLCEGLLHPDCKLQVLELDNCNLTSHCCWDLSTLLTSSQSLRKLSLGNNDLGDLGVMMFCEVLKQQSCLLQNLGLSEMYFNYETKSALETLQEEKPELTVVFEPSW

Regarding `CC(c1cc(S(=O)(=O)NC(=O)Nc2c3c(cc4c2CCC4)CCC3)nn1C)N(C)C` (single isomer, unassigned; enantiomer 2) [Example 70, 5-(1-(Dimethylamino)ethyl)-N-((1,2,3,5,6,7-hexahydro-s-indacen-4-yl)carbamoyl)-1-methyl-1H-pyrazole-3-sulfonamide, Enantiomer 2], the figures for the pIC50 at NLRP3 [1] and on NLRP3 [2] were over 7.40 and over 6.40, respectively.
Taken in the same sequence, the figures for `CN1CCn2nc(S(=O)(=O)NC(=O)Nc3c4c(cc5c3CCC5)CCC4)cc2C1` [Example 5, N-((1,2,3,5,6,7-Hexahydro-s-indacen-4-yl)carbamoyl)-5-methyl-4,5,6,7-tetrahydropyrazolo[1,5-a]pyrazine-2-sulfonamide] were 6.19 to 6.80 and 5.49 to 5.80.
`CC(C)c1cc(S(=O)(=O)NC(=O)Nc2c3c(cc4c2CCC4)CCC3)nn1CCN(C)C` [Example 6, 1-(2-(Dimethylamino)ethyl)-N-((1,2,3,5,6,7-hexahydro-s-indacen-4-yl)carbamoyl)-5-isopropyl-1H-pyrazole-3-sulfonamide]: the pIC50 on NLRP3 [1] is 6.19 to 6.80; on NLRP3 [2] it was 5.80 to 6.10.
With `CCn1nc(S(=O)(=O)NC(=O)Nc2c(-c3ccnc(OC)c3)ccc3c2CCC3)cc1CN(C)C` [Example 17, 5-((Dimethylamino)methyl)-1-ethyl-N-((5-(2-methoxypyridin-4-yl)-2,3-dihydro-1H-inden-4-yl)carbamoyl)-1H-pyrazole-3-sulfonamide], the values for the negative logarithm of the IC50 (pIC50) at NLRP3 [1] and on NLRP3 [2] were over 7.40 and over 6.40, respectively.
Taken in the same sequence, the figures for `CCn1nc(S(=O)(=O)NC(=O)Nc2c(-c3cccnc3)cc(F)c3c2CCC3)cc1CN(C)C` [Example 20, 5-((Dimethylamino)methyl)-1-ethyl-N-((7-fluoro-5-(pyridin-3-yl)-2,3-dihydro-1H-inden-4-yl)carbamoyl)-1H-pyrazole-3-sulfonamide] were over 7.40 and over 6.40.
Taken in the same sequence, the figures for `CCn1nc(S(=O)(=O)NC(=O)Nc2c(-c3ccnc(OC)c3)cc(F)c3c2CCC3)cc1CN(C)C` [Example 21, 5-((Dimethylamino)methyl)-1-ethyl-N-((7-fluoro-5-(2-methoxypyridin-4-yl)-2,3-dihydro-1H-inden-4-yl)carbamoyl)-1H-pyrazole-3-sulfonamide] were over 7.40 and over 6.40.
Taken in the same sequence, the figures for `CC(c1cc(S(=O)(=O)NC(=O)Nc2c3c(cc4c2CCC4)CCC3)nn1C1CC1)N(C)C` (centres unmarked) [Example 22, 1-Cyclopropyl-5-(1-(dimethylamino)ethyl)-N-((1,2,3,5,6,7-hexahydro-s-indacen-4-yl)carbamoyl)-1H-pyrazole-3-sulfonamide] were over 7.40 and 6.10 to 6.40.
In the case of `CCC(c1cc(S(=O)(=O)NC(=O)Nc2c3c(cc4c2CCC4)CCC3)nn1C1CC1)N1CCC1` (centres unmarked) [Example 23, 5-(1-(Azetidin-1-yl)propyl)-1-cyclopropyl-N-((1,2,3,5,6,7-hexahydro-s-indacen-4-yl)carbamoyl)-1H-pyrazole-3-sulfonamide], the pIC50 at NLRP3 [1] was over 7.40; at NLRP3 [2], over 6.40.
Taken in the same sequence, the figures for `CC1CN(C(C)c2cc(S(=O)(=O)NC(=O)Nc3c4c(cc5c3CCC5)CCC4)nn2C)C1` (centres unmarked) [Example 29, N-((1,2,3,5,6,7-Hexahydro-s-indacen-4-yl)carbamoyl)-1-methyl-5-(1-(3-methylazetidin-1-yl)ethyl)-1H-pyrazole-3-sulfonamide] were 6.80 to 7.40 and 6.10 to 6.40.
Taken in the same sequence, the figures for `CN(C)Cc1cc(S(=O)(=O)NC(=O)Nc2c3c(cc4c2CCC4)CCC3)nn1CC(C)(C)C` [Example 31, 5-((Dimethylamino)methyl)-N-((1,2,3,5,6,7-hexahydro-s-indacen-4-yl)carbamoyl)-1-neopentyl-1H-pyrazole-3-sulfonamide] were 6.80 to 7.40 and 6.10 to 6.40.

Usually pIC50 stands for −log10 of the IC50, conventionally taken in molar units.

(Values after US11542255B2, “Sulfonylureas and sulfonylthioureas as NLRP3 inhibitors” (Inflazome Limited, priority 2017, dated 2023).)
